# Several values for one entry are separate records, joined by “and”; a condition that tells them apart may be missing. Identical values can stand only once. Toxic doses and inconclusive results are not listed.
# Test system: mice, LPC-1 plasma cell tumor ip, median survival T/C
# Test: NCI In Vivo Anticancer Drug Screen. Data for tumor model Lieberman Plasma Cell No. 1 (LPC-1) (intraperitoneal) in unknown mice
# Details: endpoint: median survival time, higher = longer survival
# Experimental: The antitumor activity of compounds was measured in mice bearing transplantable tumors. Survival or tumor size were measured and the results are expressed as the measurement made in the treated group (T) divided by the measurement made in the vehicle treated control group (C). The tumor model used in this assay is Lieberman Plasma Cell No. 1 (LPC-1) (intraperitoneal) in unknown mice
smiles,measurement,setting,value
COc1cc2c(c3c1c(=O)c1ccccc1n3C)C=CC(C)(C)O2,T/C,"dose: 9.38 mg/kg/injection, schedule: Q03HX024 (oral), vehicle: steriod suspending solution",118 % of control
same,T/C,"dose: 18.0 mg/kg/injection, schedule: Q01DX021 (sc), vehicle: other",121 % of control
same,T/C,"dose: 18.0 mg/kg/injection, schedule: Q03HX008 (sc), vehicle: other",166 % of control
same,T/C,"dose: 18.75 mg/kg/injection, schedule: Q03HX008 (ip), vehicle: steriod suspending solution",103 % of control
same,T/C,"dose: 18.75 mg/kg/injection, schedule: Q03HX024 (oral), vehicle: steriod suspending solution",118 % of control
same,T/C,"dose: 23.0 mg/kg/injection, schedule: Q01DX028 (sc), vehicle: other",154 % of control
same,T/C,"dose: 27.0 mg/kg/injection, schedule: Q03HX008 (sc), vehicle: other",280 % of control
same,T/C,"dose: 27.0 mg/kg/injection, schedule: Q03HX024 (sc), vehicle: other",178 % of control
same,T/C,"dose: 37.5 mg/kg/injection, schedule: Q01DX028 (oral), vehicle: other",105 % of control
same,T/C,"dose: 37.5 mg/kg/injection, schedule: Q03HX008 (oral), vehicle: steriod suspending solution",118 % of control
same,T/C,"dose: 37.5 mg/kg/injection, schedule: Q03HX024 (oral), vehicle: steriod suspending solution",109 % of control
same,T/C,"dose: 40.0 mg/kg/injection, schedule: Q01DX021 (sc), vehicle: other",164 % of control
same,T/C,"dose: 40.0 mg/kg/injection, schedule: Q03HX008 (sc), vehicle: other",180 % of control
same,T/C,"dose: 40.0 mg/kg/injection, schedule: Q03HX024 (sc), vehicle: other",204 % of control
same,T/C,"dose: 60.0 mg/kg/injection, schedule: Q01DX021 (sc), vehicle: other",173 % of control
same,T/C,"dose: 60.0 mg/kg/injection, schedule: Q04DX003 (sc), vehicle: other",152 % of control
same,T/C,"dose: 70.0 mg/kg/injection, schedule: Q03HX024 (sc), vehicle: steriod suspending solution",112 % of control
same,T/C,"dose: 75.0 mg/kg/injection, schedule: Q01DX001 (ip), vehicle: steriod suspending solution",112 % of control
same,T/C,"dose: 75.0 mg/kg/injection, schedule: Q01DX001 (oral), vehicle: steriod suspending solution",96 % of control
same,T/C,"dose: 75.0 mg/kg/injection, schedule: Q01DX028 (oral), vehicle: other",108 % of control
same,T/C,"dose: 75.0 mg/kg/injection, schedule: Q03HX008 (oral), vehicle: steriod suspending solution",87 % of control
same,T/C,"dose: 75.0 mg/kg/injection, schedule: Q03HX024 (oral), vehicle: steriod suspending solution",150 % of control
same,T/C,"dose: 90.0 mg/kg/injection, schedule: Q01DX005 (sc), vehicle: other",150 % of control
same,T/C,"dose: 99.0 mg/kg/injection, schedule: Q01DX020 (oral), vehicle: saline",120 % of control
same,T/C,"dose: 100.0 mg/kg/injection, schedule: Q01DX001 (sc), vehicle: steriod suspending solution",100 % of control
same,T/C,"dose: 142.0 mg/kg/injection, schedule: Q01DX001 (sc), vehicle: steriod suspending solution",104 % of control
same,T/C,"dose: 143.0 mg/kg/injection, schedule: Q03HX008 (sc), vehicle: steriod suspending solution",153 % of control
same,T/C,"dose: 143.0 mg/kg/injection, schedule: Q03HX024 (sc), vehicle: steriod suspending solution",156 % of control
same,T/C,"dose: 145.0 mg/kg/injection, schedule: Q03HX024 (sc), vehicle: other",103 % of control
same,T/C,"dose: 150.0 mg/kg/injection, schedule: Q01DX001 (ip), vehicle: steriod suspending solution",100 % of control
same,T/C,"dose: 150.0 mg/kg/injection, schedule: Q01DX001 (oral), vehicle: steriod suspending solution",106 % of control and 112 % of control
same,T/C,"dose: 150.0 mg/kg/injection, schedule: Q01DX028 (oral), vehicle: other",100 % of control
same,T/C,"dose: 180.0 mg/kg/injection, schedule: Q01DX001 (sc), vehicle: other",154 % of control
same,T/C,"dose: 180.0 mg/kg/injection, schedule: Q01DX005 (sc), vehicle: other",171 % of control
same,T/C,"dose: 180.0 mg/kg/injection, schedule: Q04DX003 (sc), vehicle: other",173 % of control
same,T/C,"dose: 204.0 mg/kg/injection, schedule: Q03HX008 (sc), vehicle: steriod suspending solution",159 % of control
same,T/C,"dose: 214.0 mg/kg/injection, schedule: Q01DX001 (sc), vehicle: steriod suspending solution",102 % of control
same,T/C,"dose: 214.0 mg/kg/injection, schedule: Q03HX024 (sc), vehicle: other",112 % of control and 121 % of control
same,T/C,"dose: 300.0 mg/kg/injection, schedule: Q01DX001 (oral), vehicle: steriod suspending solution",106 % of control
same,T/C,"dose: 300.0 mg/kg/injection, schedule: Q## X008 (oral), vehicle: other",161 % of control
same,T/C,"dose: 320.0 mg/kg/injection, schedule: Q01DX001 (sc), vehicle: steriod suspending solution",104 % of control
same,T/C,"dose: 320.0 mg/kg/injection, schedule: Q03HX024 (sc), vehicle: other",118 % of control
same,T/C,"dose: 360.0 mg/kg/injection, schedule: Q01DX001 (sc), vehicle: other",152 % of control
same,T/C,"dose: 480.0 mg/kg/injection, schedule: Q01DX001 (sc), vehicle: steriod suspending solution",118 % of control
same,T/C,"dose: 528.0 mg/kg/injection, schedule: Q## X008 (sc), vehicle: steriod suspending solution",116 % of control
same,T/C,"dose: 600.0 mg/kg/injection, schedule: Q01DX001 (ip), vehicle: steriod suspending solution",112 % of control
same,T/C,"dose: 600.0 mg/kg/injection, schedule: Q01DX001 (oral), vehicle: steriod suspending solution",120 % of control
same,T/C,"dose: 600.0 mg/kg/injection, schedule: Q## X024 (oral), vehicle: steriod suspending solution",86 % of control
same,T/C,"dose: 800.0 mg/kg/injection, schedule: Q## X024 (sc), vehicle: steriod suspending solution",166 % of control
same,T/C,"dose: 1136.0 mg/kg/injection, schedule: Q## X008 (sc), vehicle: steriod suspending solution",108 % of control
same,T/C,"dose: 1712.0 mg/kg/injection, schedule: Q## X024 (sc), vehicle: steriod suspending solution",160 % of control
same,T/C,"dose: 2560.0 mg/kg/injection, schedule: Q## X008 (sc), vehicle: steriod suspending solution",172 % of control
same,T/C,"dose: 2560.0 mg/kg/injection, schedule: Q## X024 (sc), vehicle: steriod suspending solution",118 % of control
CS(=O)(=O)OCCN(CCOS(C)(=O)=O)c1ccc(N=O)cc1,T/C,"dose: 0.25 mg/kg/injection, schedule: Q01DX028 (sc), vehicle: saline",105 % of control
same,T/C,"dose: 0.5 mg/kg/injection, schedule: Q01DX028 (sc), vehicle: saline",107 % of control
same,T/C,"dose: 1.0 mg/kg/injection, schedule: Q01DX028 (sc), vehicle: saline",120 % of control
same,T/C,"dose: 1.8 mg/kg/injection, schedule: Q01DX028 (sc), vehicle: saline",157 % of control
same,T/C,"dose: 2.0 mg/kg/injection, schedule: Q01DX028 (sc), vehicle: saline",102 % of control and 115 % of control
same,T/C,"dose: 2.7 mg/kg/injection, schedule: Q01DX028 (sc), vehicle: saline",121 % of control
same,T/C,"dose: 4.0 mg/kg/injection, schedule: Q01DX028 (sc), vehicle: saline",94 % of control and 100 % of control
same,T/C,"dose: 6.0 mg/kg/injection, schedule: Q01DX028 (sc), vehicle: saline",94 % of control
O=c1ccc2cc(OC3OC(CO)C(O)C(O)C3O)c(O)cc2o1 (centres undefined),T/C,"dose: 400.0 mg/kg/injection, schedule: Q01DX028 (sc), vehicle: carboxymethylcellulose (CMC)",100 % of control
same,T/C,"dose: 600.0 mg/kg/injection, schedule: Q01DX028 (sc), vehicle: carboxymethylcellulose (CMC)",100 % of control
same,T/C,"dose: 900.0 mg/kg/injection, schedule: Q01DX028 (sc), vehicle: carboxymethylcellulose (CMC)",97 % of control
CCOC(=O)C(Cc1ccc(N(CCCl)CCCl)cc1)NC=O (centres undefined),T/C,"dose: 18.7 mg/kg/injection, schedule: Q01DX028 (sc), vehicle: carboxymethylcellulose (CMC)",176 % of control
same,T/C,"dose: 75.0 mg/kg/injection, schedule: Q01DX028 (sc), vehicle: carboxymethylcellulose (CMC)",184 % of control
same,T/C,"dose: 150.0 mg/kg/injection, schedule: Q01DX028 (sc), vehicle: carboxymethylcellulose (CMC)",115 % of control
same,T/C,"dose: 300.0 mg/kg/injection, schedule: Q01DX028 (sc), vehicle: carboxymethylcellulose (CMC)",92 % of control
CN(N=O)C(N)=O,T/C,"dose: 8.4 mg/kg/injection, schedule: Q01DX028 (sc), vehicle: saline",114 % of control
same,T/C,"dose: 14.0 mg/kg/injection, schedule: Q01DX028 (sc), vehicle: saline",150 % of control
same,T/C,"dose: 39.0 mg/kg/injection, schedule: Q01DX028 (sc), vehicle: saline",116 % of control
same,T/C,"dose: 65.0 mg/kg/injection, schedule: Q01DX028 (sc), vehicle: saline",100 % of control
O=c1[nH]c(=O)n(C2CC(O)C(CO)O2)cc1F (centres undefined),T/C,"dose: 108.0 mg/kg/injection, schedule: Q01DX028 (sc), vehicle: saline",102 % of control and 109 % of control
same,T/C,"dose: 180.0 mg/kg/injection, schedule: Q01DX028 (sc), vehicle: saline",97 % of control
same,T/C,"dose: 300.0 mg/kg/injection, schedule: Q01DX028 (sc), vehicle: saline",91 % of control
same,T/C,"dose: 500.0 mg/kg/injection, schedule: Q01DX028 (sc), vehicle: saline",86 % of control
NC(Cc1ccc(N(CCCl)CCCl)cc1)C(=O)O (centres undefined),T/C,"dose: 2.0 mg/kg/injection, schedule: Q01DX028 (sc), vehicle: methylcellulose (MC)",180 % of control
same,T/C,"dose: 4.0 mg/kg/injection, schedule: Q01DX028 (sc), vehicle: methylcellulose (MC)",155 % of control
same,T/C,"dose: 8.0 mg/kg/injection, schedule: Q01DX028 (sc), vehicle: methylcellulose (MC)",108 % of control

# Source: PubChem BioAssay AID344 (DTP/NCI, 2004)
